# Source: article PMC7875316 (Biochemistry, 2020)
# Target: T1, ClpL (Streptococcus mutans, UniProt Q8DUH3)
# T1 sequence (Q8DUH3 1-701): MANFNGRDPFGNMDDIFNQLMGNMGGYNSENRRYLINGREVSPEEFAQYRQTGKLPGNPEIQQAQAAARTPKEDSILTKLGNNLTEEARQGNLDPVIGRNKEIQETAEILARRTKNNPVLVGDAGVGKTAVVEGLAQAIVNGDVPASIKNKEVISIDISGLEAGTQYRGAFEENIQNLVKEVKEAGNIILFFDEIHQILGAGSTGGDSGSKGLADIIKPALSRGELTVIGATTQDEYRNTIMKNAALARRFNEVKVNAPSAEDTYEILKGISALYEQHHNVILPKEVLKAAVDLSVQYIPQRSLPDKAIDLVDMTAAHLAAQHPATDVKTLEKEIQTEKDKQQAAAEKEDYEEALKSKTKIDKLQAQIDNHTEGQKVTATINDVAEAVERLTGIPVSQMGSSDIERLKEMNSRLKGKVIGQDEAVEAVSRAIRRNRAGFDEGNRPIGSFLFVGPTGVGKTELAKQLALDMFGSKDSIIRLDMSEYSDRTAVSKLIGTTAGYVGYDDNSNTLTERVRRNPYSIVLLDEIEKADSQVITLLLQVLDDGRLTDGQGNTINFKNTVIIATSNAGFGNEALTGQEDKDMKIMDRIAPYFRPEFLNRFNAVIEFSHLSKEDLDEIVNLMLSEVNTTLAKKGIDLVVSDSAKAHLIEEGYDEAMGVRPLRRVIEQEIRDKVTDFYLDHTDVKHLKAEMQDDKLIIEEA
# Experiment: protection from limited trypsin proteolysis, SDS-PAGE
# Assay type: binding
# Conditions: 1 mM ADP (legend; methods say 5 mM), 20 mM MgCl2, room temperature
structure (smiles),measurement,value
Nc1ncnc2c1ncn2[C@@H]1O[C@H](COP(=O)(O)OP(=O)(O)O)[C@@H](O)[C@H]1O [ADP],"protection from limited trypsin proteolysis, SDS-PAGE",Addition of ATP or ADP dramatically increased the stability of ClpL to trypsin digestion.
